# Measurements as given in the supplement of paper PMC10307832.
# Tests used:
# Assay in all cases: relative viability (nuclei count vs DMSO), 5 days (fraction); higher = more cells survive
# Bortezomib + OSI-027 = compound: CC(C)C[C@H](NC(=O)[C@H](Cc1ccccc1)NC(=O)c1cnccn1)B(O)O [Bortezomib] + COc1cccc2cc(-c3nc([C@H]4CC[C@H](C(=O)O)CC4)n4ncnc(N)c34)[nH]c12 [OSI-027] (partner 0.5 µM)
# In short: (§1)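 Lung cancer cell lines in 1536-well plates were dosed by pin tool the day after seeding, either with one drug alone or with a fixed anchor-drug dose plus five library-drug doses (not always all listed) in √10 steps. After 5 days, cells were fixed and their nuclei stained in one step (final 0.05% Triton X-100, 1% formaldehyde, 1 ug/ml Hoechst), then counted on 4× images. Relative viability is the nuclei count in treated wells divided by that in vehicle wells. Values are medians of duplicate plates.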
# Obatoclax + Vorinostat = compound: COC1=CC(c2cc3ccccc3[nH]2)=N/C1=C\c1[nH]c(C)cc1C [Obatoclax] + O=C(CCCCCCC(=O)Nc1ccccc1)NO [Vorinostat] (partner 1 µM)
# In short: as §1
# Bortezomib + Foretinib = compound: CC(C)C[C@H](NC(=O)[C@H](Cc1ccccc1)NC(=O)c1cnccn1)B(O)O [Bortezomib] + COc1cc2c(Oc3ccc(NC(=O)C4(C(=O)Nc5ccc(F)cc5)CC4)cc3F)ccnc2cc1OCCCN1CCOCC1 [Foretinib] (partner 0.25 µM)
# In short: as §1
# Bortezomib + Decitabine = compound: CC(C)C[C@H](NC(=O)[C@H](Cc1ccccc1)NC(=O)c1cnccn1)B(O)O [Bortezomib] + Nc1ncn([C@H]2C[C@H](O)[C@@H](CO)O2)c(=O)n1 [Decitabine] (partner 2 µM)
# In short: as §1
cell line,measurement,setting,value
NCI-H650,relative viability,Bortezomib + OSI-027; first compound 0.000632 µM,0.522
same,relative viability,Bortezomib + OSI-027; first compound 0.002 µM,0.536
same,relative viability,Bortezomib + OSI-027; first compound 0.006325 µM,0.595
same,relative viability,Bortezomib + OSI-027; first compound 0.02 µM,0.207
same,relative viability,Obatoclax + Vorinostat; first compound 0.01 µM,0.439
same,relative viability,Obatoclax + Vorinostat; first compound 0.03162 µM,0.444
same,relative viability,Obatoclax + Vorinostat; first compound 0.3162 µM,0.418
same,relative viability,Obatoclax + Vorinostat; first compound 1 µM,0.384
same,relative viability,Bortezomib + Foretinib; first compound 0.000632 µM,1.08
same,relative viability,Bortezomib + Foretinib; first compound 0.002 µM,0.847
same,relative viability,Bortezomib + Foretinib; first compound 0.006325 µM,0.4
same,relative viability,Bortezomib + Foretinib; first compound 0.02 µM,0.173
same,relative viability,Bortezomib + Decitabine; first compound 0.0002 µM,0.332
same,relative viability,Bortezomib + Decitabine; first compound 0.000632 µM,0.347
same,relative viability,Bortezomib + Decitabine; first compound 0.002 µM,0.286
same,relative viability,Bortezomib + Decitabine; first compound 0.006325 µM,0.216
same,relative viability,Bortezomib + Decitabine; first compound 0.02 µM,0.147
